IC50 and CC50 data for 12 molecules are collected here from patent US20110112100A1, “Hepatitis C Virus Inhibitors” (priority 2009, published 2011).

One may read the IC50 as the point on the concentration scale where inhibition reaches its midpoint. The CC50 is the concentration at which the toxic effect on the cells reaches its halfway point. Read a high CC50 as lower toxicity to the cells.

Structures can show the parent of a compound that is named as a salt. Where two headings read alike, the source gives them in different places. Some results are limits rather than exact numbers.

One data set relates to 1a-H77 replicon cells. The data set can be described thus: HCV 1a replicon inhibitory activity (Renilla luciferase). In kind it is cell-based, hepatitis C virus. The settings on record: read-out: IC50 value (95% Confidence Intervals) pM Replicon 1A assay. The essentials:
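Replicon cells in DMEM + 10% FCS incubated 48 hours at 37° C., 5% CO2 with 1-in-3 serial dilutions of compound prepared in DMSO. Replication read as Renilla luciferase luminescence after lysis. EC50 taken from log concentration-response curves.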
(Replicon systems follow genome replication, usually without infectious particles.)

In the next data set the test system is 1b (con1) replicon cells. Kind of data set: HCV 1b replicon inhibitory activity (luciferase, Britelite Plus). The settings on record: read-out: IC50 value (95% Confidence Intervals) pM Replicon 1B assay. In kind it is cell-based, hepatitis C virus. The essentials: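 1b (con1) luciferase replicon cells in DMEM + 10% FCS were exposed to 1-in-3 DMSO compound dilutions for 48 h at 37° C, 5% CO2. Luminescence was read 1-15 min after Britelite Plus addition; EC50 came from log concentration-response curves.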

Data set [1] is described as follows: Compound induced cytotoxicity in HCV replicon cell lines (WST-1 reagent). The class given is cell-based. The settings on record: human, 1b (con1) HCV replicon cells; WST-1, 48 hours; in 1 experiment. Here is the method: Test compounds were solubilised to 4 mM in 100% DMSO. Dilutions were made to the desired starting concentration in 100% DMSO and then 1 in 3 dilutions made, again in 100% DMSO. 0.5 μl of each sample was added to 384-well assay plates. White Lumitrac (Greiner) plates were used for the 1a and 1b replicon assays and black, clear bottomed (Greiner) plates were used for the WST-1 cytotoxity assay.
1b (con1) replicon cells were resuspended to a concentration of 1.4×10^5 cells/ml by addition of pre-warmed medium (DMEM+10% FCS). 50 μl of this suspension was added to each well of a 384-well assay plate (Black, clear bottomed, Greiner) already containing 0.5 μl of test compound.
All plates were covered with gas permeable seals and incubated at 37° C., 5% CO2 for 48 hours. After 48 hours, 5 μl WST-1 reagent (Roche, 11 644 807 001) was added to each well and the plate returned to the incubator for 3 hours. After this incubation period absorbance was read at 450 nm on an EnVision (Perkin Elmer) plate reader. The half maximal cytotoxic concentration (CC50) values were calculated for each compound by constructing log concentration-response curves.
All of the exemplified compounds have been screened in a cell proliferation assay (WST-1). A majority have […] in at least 2 independent experiments, the exceptions being the compounds of examples 1, 10, 12, 23, 25, 37, 47, 48, 49, 52, 56, 57, 58, 60, 67, 68, 69, 70, 71, 72, 73, 74, 79, 81 and 84 which have CC50 values>2 μM in 1 experiment, and example 20 where the CC50 is reported as >10 nM (in this instance the top concentration tested in the assay was 10 nM).

Setting [2] is: geometric mean, 95% confidence intervals in parentheses, 48 hours, medium with 10% FCS.
Where [3] appears, read: Hepatitis C virus, geometric mean, 95% confidence intervals in parentheses, 48 hours, medium with 10% FCS.

On to `COC(=O)N[C@H](C(=O)N1CCC[C@H]1c1ncc(-c2ccc3nc(-c4ccc(-c5c[nH]c([C@@H]6CCCN6C(=O)[C@@H](NC(=O)OC)C(C)C)n5)cc4)cnc3c2)[nH]1)c1ccccc1` [Example 56, Methyl {(2S)-1-[(2S)-2-{4-[4-(6-(2-[(2S)-1-{(2S)-2-[(methoxycarbonyl)amino]-2-phenylacetyl}pyrrolidin-2-yl]-1H-imidazol-5-yl}quinoxalin-2-yl)phenyl]-1H-imidazol-2-yl}pyrrolidin-1-yl]-3-methyl-1-oxobutan-2-yl}carbamate trifluoroacetic acid salt], for which the IC50 with 1a-H77 replicon cells (Hepatitis C virus, 48 h) came to 26.3 pM; with 1b (con1) replicon cells (Hepatitis C virus, 48 h) it was 10.2 pM. For the same molecule, the CC50 at 48 h in data set [1] is > 2000 nM.
`COC(=O)N[C@@H](C)C(=O)N1CCC[C@H]1c1ncc(-c2ccc3nc(-c4ccc(-c5c[nH]c([C@@H]6CCCN6C(=O)[C@@H](NC(=O)OC)C(C)C)n5)cc4)cnc3c2)[nH]1` [Example 57, Methyl {(2S)-1-[(2S)-2-(4-{4-[6-(2-{(2S)-1-[N-(methoxycarbonyl)-L-alanyl]pyrrolidin-2-yl}-1H-imidazol-5-yl)quinoxalin-2-yl]phenyl}-1H-imidazol-2-yl)pyrrolidin-1-yl]-3-methyl-1-oxobutan-2-yl} carbamate trifluoroacetic acid salt]: the results for the IC50 with 1a-H77 replicon cells (setting [2]) and in the data set with 1b (con1) replicon cells (setting [2]) were 21.8 pM and 21.9 pM, respectively.
As to `COC(=O)N[C@H](C(=O)N1CCC[C@H]1c1nc(-c2ccc(-c3cnc4cc(-c5cnc([C@@H]6CCCN6C(=O)[C@@H](NC(=O)OC)C(C)C)[nH]5)cnc4c3)cc2)c[nH]1)C(C)C` [Example 19, Methyl {(2S)-1-[(2S)-2-{5-[7-(4-{2-[(2S)-1-{(2S)-2-[(methoxycarbonyl)amino]-3-methylbutanoyl}pyrrolidin-2-yl]-1H-imidazol-4-yl}phenyl)-1,5-naphthyridin-3-yl]-1H-imidazol-2-yl}pyrrolidin-1-yl]-3-methyl-1-oxobutan-2-yl}carbamate], the IC50 was 468 pM with 1a-H77 replicon cells (setting [3]) and 38.3 pM in the data set with 1b (con1) replicon cells (setting [3]).
`CCCC[C@@H](NC(=O)OC)C(=O)N1CCC[C@H]1c1ncc(-c2ccc3nc(-c4ccc(-c5c[nH]c([C@@H]6CCCN6C(=O)[C@@H](NC(=O)OC)C(C)C)n5)cc4)cnc3c2)[nH]1` [Example 78, Methyl {(2R)-1-[(2S)-2-{5-[2-(4-{2-[(2S)-1-{(2S)-2-[(methoxycarbonyl)amino]-3-methylbutanoyl}pyrrolidin-2-yl]-1H-imidazol-4-yl}phenyl)quinoxalin-6-yl]-1H-imidazol-2-yl}pyrrolidin-1-yl]-1-oxohexan-2-yl}carbamate trifluoroacetic acid salt]: the IC50 with 1a-H77 replicon cells (Hepatitis C virus, 48 h) turned out to be 443 pM; with 1b (con1) replicon cells (Hepatitis C virus, 48 h) it was 45.5 pM.
As for `COC(=O)N[C@H](C(=O)N1CCC[C@H]1c1ncc(-c2ccc(-c3cnc4cc(-c5cnc([C@@H]6CCCN6C(=O)[C@@H](NC(=O)OC)C(C)C)[nH]5)ccc4n3)cc2)[nH]1)C(C)C` [Example 4, Methyl {(2S)-1-[(2S)-2-{5-[4-(6-{2-[(2S)-1-{(2S)-2-[(methoxycarbonyl)amino]-3-methylbutanoyl}pyrrolidin-2-yl]-1H-imidazol-5-yl}quinoxalin-2-yl)phenyl]-1H-imidazol-2-yl}pyrrolidin-1-yl]-3-methyl-1-oxobutan-2-yl}carbamate], the IC50 stood at 17.4 pM with 1a-H77 replicon cells (setting [3]) and 7.7 pM in the data set with 1b (con1) replicon cells (setting [3]).
The corresponding values for `CCOc1nc(-c2ccc(-c3cnc([C@@H]4CCCN4C(=O)[C@@H](NC(=O)OC)C(C)C)[nH]3)cc2)nc2ccc(-c3cnc([C@@H]4CCCN4C(=O)[C@@H](NC(=O)OC)C(C)C)[nH]3)cc12` [Example 16, Methyl {(2S)-1-[(2S)-2-{5-[4-(4-ethoxy-6-{2-[(2S)-1-{(2S)-2-[(methoxycarbonyl)amino]-3-methylbutanoyl}pyrrolidin-2-yl]-1H-imidazol-5-yl}quinazolin-2-yl)phenyl]-1H-imidazol-2-yl}pyrrolidin-1-yl]-3-methyl-1-oxobutan-2-yl}carbamate] are 35.3 pM and 5.28 pM.
As for `COC(=O)N[C@H](C(=O)N1CCC[C@H]1c1nc(-c2ccc(-c3cnc4cc(-c5cnc([C@@H]6CCCN6C(=O)[C@@H](Cc6ccccc6)NC(=O)OC)[nH]5)ccc4n3)cc2)c[nH]1)C(C)C` [Example 62, Methyl {(2R)-1-[(2S)-2-{5-[2-(4-{2-[(2S)-1-{(2S)-2-[(methoxycarbonyl)amino]-3-methylbutanoyl}pyrrolidin-2-yl]-1H-imidazol-4-yl}phenyl)quinoxalin-6-yl]-1H-imidazol-2-yl}pyrrolidin-1-yl]-1-oxo-3-phenylpropan-2-yl}carbamate trifluoroacetic acid salt], the IC50 with 1a-H77 replicon cells (Hepatitis C virus, 48 h) turned out to be 2570 pM; in the data set on 1b (con1) replicon cells (Hepatitis C virus, 48 h) it was 44.1 pM.
On to `COC(=O)N[C@H](C(=O)N1CCC[C@H]1c1nc(-c2ccc(-c3nc4ccc(-c5c[nH]c([C@@H]6CCCN6C(=O)[C@@H](NC(=O)OC)C(C)C)n5)cc4nc3OC)cc2)c[nH]1)C(C)C` [Example 17, Methyl {(2S)-1-[(2S)-2-{4-[4-(3-methoxy-6-{2-[(2S)-1-{(2S)-2-[(methoxycarbonyl)amino]-3-methylbutanoyl}pyrrolidin-2-yl]-1H-imidazol-4-yl}quinoxalin-2-yl)phenyl]-1H-imidazol-2-yl}pyrrolidin-1-yl]-3-methyl-1-oxobutan-2-yl}carbamate], for which the figures for the IC50 in the data set on 1a-H77 replicon cells (setting [3]) and with 1b (con1) replicon cells (setting [3]) were 560 pM and 22.3 pM, respectively.
`COC(=O)N[C@@H](COCc1ccccc1)C(=O)N1CCC[C@H]1c1ncc(-c2ccc3nc(-c4ccc(-c5c[nH]c([C@@H]6CCCN6C(=O)[C@@H](NC(=O)OC)C(C)C)n5)cc4)cnc3c2)[nH]1` [Example 48, Methyl {(2S)-1-[(2S)-2-{4-[4-(6-{2-[(2S)-1-{(2S)-3-(benzyloxy)-2-[(methoxycarbonyl)amino]propanoyl}pyrro-lidin-2-yl]-1H-imidazol-5-yl}quinoxalin-2-yl)phenyl]-1H-imidazol-2-yl}pyrrolidin-1-yl]-3-methyl-1-oxobutan-2-yl}carbamate carbamate trifluoroacetic acid salt]: the IC50 with 1a-H77 replicon cells (setting [2]) stood at 27.8 pM; with 1b (con1) replicon cells (setting [2]), 6.84 pM.
With `COC(=O)N[C@H](C(=O)N1CCC[C@H]1c1ncc(-c2cnc(-c3ccc4cc(-c5cnc([C@@H]6CCCN6C(=O)[C@@H](NC(=O)OC)C(C)C)[nH]5)ccc4c3)nc2)[nH]1)C(C)C` [Example 7, Methyl {(2S)-1-[(2S)-2-{5-[6-(5-{2-[(2S)-1-{(2S)-2-[(methoxycarbonyl)amino]-3-methyl-butanoyl}pyrrolidin-2-yl]-1H-imidazol-5-yl}pyrimidin-2-yl)naphthalen-2-yl]1H-imidazol-2-yl}pyrrolidin-1-yl]-3-methyl-1-oxobutan-2-yl}carbamate], the IC50 stood at 68.4 pM in the data set with 1a-H77 replicon cells (setting [3]) and 21.4 pM in the data set on 1b (con1) replicon cells (setting [3]).
As to `COC(=O)N[C@@H](CO)C(=O)N1CCC[C@H]1c1ncc(-c2ccc3nc(-c4ccc(-c5c[nH]c([C@@H]6CCCN6C(=O)[C@@H](NC(=O)OC)C(C)C)n5)cc4)cnc3c2)[nH]1` [Example 64, Methyl {(2S)-1-[(2S)-2-{4-[4-(6-{2-[(2S)-1-{(2S)-3-hydroxy-2-[(methoxycarbonyl)amino]propanoyl}pyrrolidin-2-yl]-1H-imidazol-5-yl}quinoxalin-2-yl)phenyl]-1H-imidazol-2-yl}pyrrolidin-1-yl]-3-methyl-1-oxobutan-2-yl}carbamate trifluoroacetic acid salt], the 50% inhibitory concentration (IC50) in the data set on 1a-H77 replicon cells (Hepatitis C virus, 48 h) worked out at 44.9 pM; in the data set with 1b (con1) replicon cells (Hepatitis C virus, 48 h), 42 pM.
On the same counts, the results for `COC(=O)N[C@H](C(=O)N1CCC[C@H]1c1nc(-c2ccc(-c3cnc4cc(-c5cnc([C@@H]6CCCN6C(=O)[C@@H](Cc6ccccn6)NC(=O)OC)[nH]5)ccc4n3)cc2)c[nH]1)C(C)C` [Example 83, Methyl {(2S)-1-[(2S)-2-(4-{4-[6-(2-{(2S)-1-[(2R)-2-[(methoxycarbonyl)amino]-3-(pyridin-2-yl)propanoyl]pyrrolidin-2-yl}-1H-imidazol-5-yl)quinoxalin-2-yl]phenyl}-1H-imidazol-2-yl)pyrrolidin-1-yl]-3-methyl-1-oxobutan-2-yl}carbamate trifluoroacetic acid salt] are 1030 pM and 53.4 pM.
